US9295732B2, “Conjugated TLR7 and/or TLR8 and TLR2 polycationic agonists” (CAYLA, priority 2013, dated 2016)

Test system: B16-F1 tumor
Assay: In vivo mouse B16-F1 tumor model, molecule alone
Parameters: species or system C57BL/6 mice
Details: by day 23, intra-tumoral injections, FIG. 8A
Experimental: Measurements were performed under gas anesthesia.
The second group received intra-tumoral injections of CL413 molecule alone (a TLR7-TLR2 Pam2CSK4-based molecule). Third and forth groups received intra-tumoral injections of the TLR2 ligand, Pam2CSK4 alone, and the TLR7 ligand alone, respectively. A fifth group received a combined treatment of Pam2CSK4 and TLR7 ligand, in solution at the equivalent molecule quantity of the respective TLR2 and TLR7 moieties in CL413 (in 100 μl Bionolyte G5® with Pluronic® F-68 2%) for a total of 3 injections.

(6S,9S,12S,15S,18S,21R)-6,25-diamino-21-(4-((6-amino-2-(butylamino)-8-hydroxy-9H-purin-9-yl)methyl)phenylcarbamoyl)-12,15,18-tris(4-aminobutyl)-9-(hydroxyl methyl)-7,10,13,16,19-pentaoxo-4-thia-8,11,14,17,20-pentaazapentacosane-1,2-diyl dipalmitate [CL413]
tumor volume: no increase in tumor volume
